Measured values reported in PMC7927014, “Novel Small Molecule Hsp90/Cdc37 Interface Inhibitors Indirectly Target K-Ras-Signaling” (Cancers, 2021).
Counter-ions that a name gives are not always drawn.

Experiments:
Hsp90/Cdc37 [1] = assay: FIMM screening in split Renilla luciferase assay with hypomorphic NRL-Hsp90 construct, 20 μM; type: biochemical; details: for normalized RLU (FIMM Screening-1) / normalized RLU (FIMM Screening-2, scaffold based): DMSO = 1.00; for Average RLU (FIMM Screening-1) / Average RLU (FIMM Screening-2, scaffold based): mean of 3 wells; for Average RLU (FIMM Screening-1): DMSO 50019; for Average RLU (FIMM Screening-2, scaffold based): DMSO 51006
Description: (§1) In the second in silico screening of the FIMM database, we employed the four identified chemical scaffolds (Figure S2B) for the visual inspection of the FIMM compound library. […] All of the purchased compounds were validated in vitro at 20 μM using the split Renilla luciferase assay.
(§2) The Hsp90/Cdc37 split Renilla luciferase assay using the full length Hsp90 for the compound screening was described previously. […] After 48 h, the cells were trypsinized and washed with PBS. The harvested cells were lysed in 1 mL of the 1x lysis buffer provided in the Renilla Luciferase Reporter Assay System Kit from Promega (cat. E2820), and were incubated on ice for 10 min. The cell lysates were then cleared by centrifugation at 13,000× g for 1 min. […] After this, the screening/test compounds or DMSO—as indicated—were added to each well. In total, 5 µL NRL-Hsp90- or NRL-N-Hsp90-lysate was added to each well, one row at a time. Subsequently, the plate was incubated for 5 min at room temperature (RT). […] Just before the reading, 20 µL assay buffer containing 2× Renilla luciferase substrate (coelenterazine) was added. For the FIMM screening, sample wells were read on a PHERAstar plate reader (BMG LABTECH) at a gain level of 4000, after 10 s shaking, using a hypomorph of NRL-Hsp90. For the subsequent validations of the compounds, sample wells with the above-described assay constructs were read using a synergy H1 Hybrid Multi-Mode reader (BioTek) in the luminescence detection mode, as described previously in detail.

Hsp90/Cdc37 [2] = target: T1, Hsp90/Cdc37 (Homo sapiens, UniProt P07900); assay: Hsp90/Cdc37 split Renilla luciferase assay, full length Hsp90 (cell lysate; IC50 and 20 μM validation); type: biochemical; details: for IC50: full length Hsp90, split Renilla luciferase assay, cell lysate; for normalized RLU / Average RLU: MolPort Screening-3, tested concentration of drugs 20 μM; for normalized RLU: RLU normalized to DMSO (=1.00); for Average RLU: average of 3 wells (DMSO 248028)
T1 construct: The Hsp90/Cdc37 split Renilla luciferase assay using the full length Hsp90 for the compound screening was described previously; expressed in transfected cells; host or cells: HEK293 EBNA cells, cleared lysates
Description: as §1, §2

N-Hsp90/Cdc37 = target: T2, N-Hsp90/Cdc37 (Homo sapiens, UniProt P07900); assay: N-Hsp90/Cdc37 split Renilla luciferase assay (N-terminal Hsp90 fragment, residues 1-223); type: biochemical; details: cell lysate
T2 construct: only the N-terminal ATP-ase domain of Hsp90 (N-Hsp90, residues 1-223); expressed in transfected cells; host or cells: HEK293 EBNA cells, cleared lysates
Description: as §2

HCC-44 cells = assay: Tumorosphere assay (low adhesion, serum-free 3D spheroid culture); type: cell-based; details: HCC-44, 20 μM, 72 h
Description: (§3) Per well, 2000 cells were seeded in flat bottom 96-well suspension culture plates (cat. no. 655185, Cellstar, Greiner Bio-One) in 100 µL DMEM or RPMI media containing 1× B27 (cat. no. 17504044, Gibco, Thermo Fisher Scientific), 25 ng/mL EGF (cat. no. E9644, Sigma-Aldrich), and 25 ng/mL FGF (cat. no. RP-8628, Thermo Fisher Scientific), 20% MethoCult H4100 (cat. no. 04100, […] Technologies). After 2 days, 50 µL media containing 0.3% DMSO or 3× the concentration of the indicated compounds were added to the wells in a 1:2 dilution-series, starting at 100 µM. After 72 h of treatment, 10% (v/v) alamarBlue reagent (cat. no. DAL1100, Thermo Fisher Scientific) was added to each well. Then, the fluorescence intensity (excitation 560 nm and emission 590 nm) was measured after 4 h using a H1 Hybrid Multi-Mode reader (BioTek).

MDA-MB-231 cells = assay: as above; type: cell-based; details: MDA-MB-231, 20 μM, 72 h
Description: as §3

SK-BR-3 cells = assay: as above; type: cell-based; details: SK-BR-3, 20 μM, 72 h
Description: as §3

MIA PaCa-2 cells = assay: as above; type: cell-based; details: MIA PaCa-2, 20 μM, 72 h
Description: as §3

Hsp90α (N-terminal) = target: T3, Hsp90α (N-terminal) (Homo sapiens, UniProt P07900); assay: Hsp90 N-terminal ATP-binding site competition assay (FITC-geldanamycin fluorescence polarization); details: 20 μM compound
T3 construct: purchased BPS Bioscience 50298
Description: The reaction was initiated by adding 35 ng/μL purified recombinant Hsp90α, and was incubated at RT with slow shaking for 2 h. All of the reactions were performed in a black, low binding NUNC microtiter plate, included in the kit, and the total reaction volume was 50 μL. The enzyme control was measured without the test compound, and the enzyme background control was measured without the test compound or Hsp90α. […] All of the controls and the blank contained 10% DMSO, as did all of the samples of the test compounds. All of the samples were analyzed as duplicates. […] The blank value was subtracted from all of the other values, and the fluorescence polarization was determined as:(1) mP = ((III − I⊥)/(III+ I⊥)) × 1000 where III is the intensity of the parallel, and I┴ the intensity of the perpendicular polarized light.

Compound | normalized RLU (FIMM Screening-1) (Hsp90/Cdc37 [1]) | Average RLU (FIMM Screening-1) (Hsp90/Cdc37 [1]) | IC50 (Hsp90/Cdc37 [2]) | IC50 (N-Hsp90/Cdc37) | also measured
O=C(O[C@@H]1Cc2c(O)cc(O)cc2O[C@@H]1c1cc(O)c(=O)c2c(O)c(O)cc([C@H]3Oc4cc(O)cc(O)c4C[C@H]3O)c2c1)c1cc(O)c(O)c(O)c1 [compound 8, Theaflavin monogallates] | 0.25 | 12688 RLU | 14.1 µM |  | 
NC[C@@H]1O[C@H](O[C@H]2[C@@H](O)[C@H](O[C@@H]3[C@@H](O)[C@H](N)C[C@H](N)[C@H]3O[C@H]3O[C@H](CO)[C@@H](O)[C@H](O)[C@H]3N)O[C@@H]2CO)[C@H](N)[C@@H](O)[C@@H]1O [compound 6, Paromomycin sulfate, reference compound] | 0.67 | 33633 RLU |  |  | 
NC(CSS(=O)(=O)O)=NCCC12CC3CC(CC(O)(C3)C1)C2 [×7648, 1-[2-[(1-amino-2-sulfosulfanylethylidene)amino]ethyl]-3-hydroxyadamantane] | 0.22 | 10978 RLU | 18 ± 2 µM | 14 ± 4 µM | 
O=C(CSS(=O)(=O)O)Nc1cccc(C(F)(F)F)c1 [×1625, [({[3-(trifluoromethyl)phenyl]carbamoyl}methyl)sulfanyl]sulfonate] |  |  | 41 ± 8 µM | 94 ± 3 µM | effect on spheroid formation (HCC-44 cells): did not decrease; effect on spheroid formation (MDA-MB-231 cells): did not decrease; effect on spheroid formation (SK-BR-3 cells): did not decrease; effect on spheroid formation (MIA PaCa-2 cells): did not decrease; competition with FITC-geldanamycin (ATP-pocket binding, polarization signal) (Hsp90α (N-terminal)): None of these four compounds displaced; normalized RLU (Hsp90/Cdc37 [2]): 0.47; Average RLU (Hsp90/Cdc37 [2]): 117361 RLU
Cc1cc(OCC(=O)Nc2ccccc2C(=O)O)cc(C)c1Cl [×1127, 2-[2-(4-chloro-3,5-dimethylphenoxy)acetamido]benzoic acid] |  |  | 41 ± 10 µM | 11 ± 1 µM | normalized RLU (FIMM Screening-2, scaffold based) (Hsp90/Cdc37 [1]): 0.66; Average RLU (FIMM Screening-2, scaffold based) (Hsp90/Cdc37 [1]): 33660 RLU
Enamine compound T5807719 [compound 4] | 0.48 | 24009 RLU |  |  | 
Cc1ccc(Nc2ccc(C(=O)O)cc2N)cc1 [compound 7, 3-amino-4-(4-toluidino)benzoic acid] | 0.56 | 28120 RLU | 177 ± 31 µM | 322 ± 50 µM | 
O=C(CSc1nc2ccccc2s1)c1ccc(O)c(O)c1 [SC9, 2-(1,3-benzothiazol-2-ylsulfanyl)-1-(3,4-dihydroxyphenyl)ethan-1-one] |  |  | 72 ± 10 µM | 64 ± 9 µM | normalized RLU (FIMM Screening-2, scaffold based) (Hsp90/Cdc37 [1]): 0.64; Average RLU (FIMM Screening-2, scaffold based) (Hsp90/Cdc37 [1]): 32657 RLU
N=C(N)SCc1cc(=O)[nH]c(=O)[nH]1 [SC5, {[(2,6-dioxo-1,2,3,6-tetrahydropyrimidin-4-yl)methyl]sulfanyl}methanimidamide] |  |  |  |  | normalized RLU (FIMM Screening-2, scaffold based) (Hsp90/Cdc37 [1]): 0.39; Average RLU (FIMM Screening-2, scaffold based) (Hsp90/Cdc37 [1]): 19772 RLU
O=C(O[C@@H]1Cc2c(O)cc(O)cc2O[C@@H]1c1cc(O)c(O)c(O)c1)c1cc(O)c(O)c(O)c1 [compound 3, Epigallocatechin gallate] | 0.45 | 22619 RLU | 88 ± 23 µM | 57 ± 14 µM | 
O=c1c(O)cc([C@H]2Oc3cc(O)cc(O)c3C[C@H]2O)cc2c([C@H]3Oc4cc(O)cc(O)c4C[C@H]3O)cc(O)c(O)c12 [compound 1, Theaflavin] | 0.25 | 12261 RLU | 29.3 µM |  | 
O=C(O)c1cc(S(=O)(=O)Nc2cccc(Cl)c2)ccc1O [SC22, 5-[(3-chlorophenyl)sulfamoyl]-2-hydroxybenzoic acid] |  |  |  |  | normalized RLU (FIMM Screening-2, scaffold based) (Hsp90/Cdc37 [1]): 0.73; Average RLU (FIMM Screening-2, scaffold based) (Hsp90/Cdc37 [1]): 37332 RLU
O=c1c(O)c(-c2ccc(O)c(O)c2)oc2cc(O)cc(O)c12 [×1742, 2-(3,4-dihydroxyphenyl)-3,5,7-trihydroxy-4H-chromen-4-one dihydrate (quercetin dihydrate)] |  |  |  |  | effect on spheroid formation (HCC-44 cells): did not decrease; effect on spheroid formation (MDA-MB-231 cells): significantly increased; effect on spheroid formation (SK-BR-3 cells): did not decrease; effect on spheroid formation (MIA PaCa-2 cells): significantly increased; competition with FITC-geldanamycin (ATP-pocket binding, polarization signal) (Hsp90α (N-terminal)): None of these four compounds displaced; normalized RLU (Hsp90/Cdc37 [2]): 0.40; Average RLU (Hsp90/Cdc37 [2]): 100349 RLU
Enamine compound T6605315 [compound 5] | 0.57 | 28274 RLU |  |  | 
O=C(O[C@@H]1Cc2c(O)cc(O)cc2O[C@@H]1c1cc(O)c(=O)c2c(O)c(O)cc([C@H]3Oc4cc(O)cc(O)c4C[C@H]3OC(=O)c3cc(O)c(O)c(O)c3)c2c1)c1cc(O)c(O)c(O)c1 [compound 2, Theaflavin 3,3-digallate] | 0.12 | 5883 RLU | 75 ± 26 µM | 81 ± 16 µM | 
O=C(O[C@@H]1Cc2c(O)cc(O)cc2O[C@@H]1c1ccc(O)c(O)c1)c1cc(O)c(O)c(O)c1 [M15, (2R,3R)-2-(3,4-dihydroxyphenyl)-5,7-dihydroxy-3,4-dihydro-2H-1-benzopyran-3-yl 3,4,5-trihydroxybenzoate (epicatechin gallate)] |  |  | 28 ± 4 µM | 4.8 ± 0.7 µM | normalized RLU (Hsp90/Cdc37 [2]): 0.33; Average RLU (Hsp90/Cdc37 [2]): 80961 RLU
